In PubChem BioAssay (NCI):
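Method: 48-hour compound exposure of cells in 96-well plates, five concentrations, linear interpolation of endpoints. Abbreviation: GI50, concentration required for 50% inhibition of growth. TGI denotes the concentration required for complete inhibition of growth.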

System: SN12K1 renal
Assay: DTP human tumour cell line panel, 48 h

## COc1cccc2c1C(=O)c1c(O)c3c(c(O)c1C2=O)C[C@@](O)(C(C)=O)C[C@@H]3OC1CC(O)C(O)C(C)O1 (some centres not stated)
  GI50: 0.333 µM
  TGI: 4.96 µM
